Results reported in paper PMC8207330 (Leukemia research, 2017).
Like-named read-outs stand apart in the source and are kept apart here.

Test system: patients with JAK2^V617F-positive myelofibrosis, essential thrombocythemia, or polycythemia vera
Type: in vivo
[1] = cohort 6, 120 mg (Cycle 1a), N = 8

Cc1cc(Nc2cc(CN3CCOCC3)c3nc(C)c(Cc4ccc(Cl)cc4F)n3n2)n[nH]1 [gandotinib]
Patients with ≥ 1 SAE possibly related to study drug (30 mg (N = 3)): 0 n% | SAE possibly related: Anemia (30 mg (N = 3)): 0 n% | SAE possibly related: Blood creatinine increased (30 mg (N = 3)): 0 n% | SAE possibly related: Hyperkalemia (30 mg (N = 3)): 0 n% | SAE possibly related: Hyperuricemia (30 mg (N = 3)): 0 n% | SAE possibly related: Renal failure, acute (30 mg (N = 3)): 0 n% | Patients with ≥ 1 SAE possibly related to study drug (60 mg (N = 7)): 0 n% | SAE possibly related: Anemia (60 mg (N = 7)): 0 n% | SAE possibly related: Blood creatinine increased (60 mg (N = 7)): 0 n% | SAE possibly related: Hyperkalemia (60 mg (N = 7)): 0 n% | SAE possibly related: Hyperuricemia (60 mg (N = 7)): 0 n% | SAE possibly related: Renal failure, acute (60 mg (N = 7)): 0 n% | Patients with ≥ 1 SAE possibly related to study drug (120 mg (N = 34)): 0 n% | SAE possibly related: Anemia (120 mg (N = 34)): 0 n% | SAE possibly related: Blood creatinine increased (120 mg (N = 34)): 0 n% | SAE possibly related: Hyperkalemia (120 mg (N = 34)): 0 n% | SAE possibly related: Hyperuricemia (120 mg (N = 34)): 0 n% | SAE possibly related: Renal failure, acute (120 mg (N = 34)): 0 n% | DLTs observed (200 mg): 3 DLTs | Patients with ≥ 1 SAE possibly related to study drug (200 mg (N = 15)): 4 (26.7) n% | SAE possibly related: Anemia (200 mg (N = 15)): 1 (6.7) n% | SAE possibly related: Blood creatinine increased (200 mg (N = 15)): 3 (20.0) n% | SAE possibly related: Hyperkalemia (200 mg (N = 15)): 0 (0.0) n% | SAE possibly related: Hyperuricemia (200 mg (N = 15)): 1 (6.7) n% | SAE possibly related: Renal failure, acute (200 mg (N = 15)): 1 (6.7) n% | Patients with ≥ 1 SAE possibly related to study drug (240 mg (N = 3)): 1 (33.3) n% | SAE possibly related: Anemia (240 mg (N = 3)): 0 n% | SAE possibly related: Blood creatinine increased (240 mg (N = 3)): 1 (33.3) n% | SAE possibly related: Hyperkalemia (240 mg (N = 3)): 0 n% | SAE possibly related: Hyperuricemia (240 mg (N = 3)): 0 n% | SAE possibly related: Renal failure, acute (240 mg (N = 3)): 0 n% | Patients with ≥ 1 SAE possibly related to study drug (300 mg (N = 5)): 1 (20.0) n% | SAE possibly related: Anemia (300 mg (N = 5)): 0 n% | SAE possibly related: Blood creatinine increased (300 mg (N = 5)): 0 n% | SAE possibly related: Hyperkalemia (300 mg (N = 5)): 0 n% | SAE possibly related: Hyperuricemia (300 mg (N = 5)): 0 n% | SAE possibly related: Renal failure, acute (300 mg (N = 5)): 1 (20.0) n% | TEAE: nausea (16 of 38 patients, majority grade 1): 42.1% | TEAE: diarrhea (21 of 38 patients, majority grade 1): 55.3% | Patients with ≥ 1 SAE possibly related to study drug (Grade 3 and above, Total): 6 (15.8) n% | SAE possibly related: Anemia (Grade 3 and above, Total): 1 (2.6) n% | SAE possibly related: Blood creatinine increased (Grade 3 and above, Total): 1 (2.6) n% | SAE possibly related: Hyperkalemia (Grade 3 and above, Total): 0 n% | SAE possibly related: Hyperuricemia (Grade 3 and above, Total): 2 (5.3) n% | SAE possibly related: Renal failure, acute (Grade 3 and above, Total): 2 (5.3) n% | Patients with ≥ 1 SAE possibly related to study drug (Grade 4 and above, Total): 2 (5.3) n% | SAE possibly related: Anemia (Grade 4 and above, Total): 0 n% | SAE possibly related: Blood creatinine increased (Grade 4 and above, Total): 0 n% | SAE possibly related: Hyperkalemia (Grade 4 and above, Total): 0 n% | SAE possibly related: Hyperuricemia (Grade 4 and above, Total): 2 (5.3) n% | SAE possibly related: Renal failure, acute (Grade 4 and above, Total): 0 n% | SAE possibly related: Renal failure, acute (Total (N = 38), 2 MF, 1 ET, 1 PV): 4 (10.5) [2 MF, 1 ET, 1 PV] n% | SAE possibly related: Anemia (Total (N = 38), MF): 1 (2.6) MF n% | SAE possibly related: Blood creatinine increased (Total (N = 38), MF): 5 (13.2) MF n% | SAE possibly related: Hyperkalemia (Total (N = 38), MF): 1 (2.6) MF n% | SAE possibly related: Hyperuricemia (Total (N = 38), MF): 2 (5.3) MF n% | DLT: Blood creatinine increased [1]: 3 (37.5) n (%) | DLT: Hyperkalemia [1]: 0 n (%) | DLT: Hyperuricemia [1]: 0 n (%) | DLT: Renal failure acute [1]: 0 n (%) | Patients with DLT [1]: 3 (37.5) n (%)
